Experimental findings from patent publication US7579356B2, “Thia-tetraazaacenaphthylene kinase inhibitors” (Janssen Pharmaceutica NV, priority 2005, dated 2009) are described below.

pIC50: −log10 of the molar value. Values joined by “and” are separate entries in the source; they are usually repeats but may differ in a detail not shown here. Equal entries are not always repeated. Some results are limits rather than exact numbers.

In one assay the test system is A375 malignant melanoma. The assay can be described thus: Cell Proliferation Inhibition Assay, A375 (14C-thymidine). The format is cell-based. As to conditions: Homo sapiens, A-375. The source says:
(§1) Cell Proliferation Inhibition Assay
(§2) The ability of a test compound to inhibit unregulated cell proliferation may be determined by measuring incorporation of ^14C-labelled thymidine into newly synthesized DNA within cell lines derived from carcinomas originating from several tissues. Accordingly, the effect of a test compound on proliferation of cells with a variety of phenotypes may be determined.
(§3) Carcinoma cell lines used include the HeLa cervical adenocarcinoma from the American Type Culture Collection (ATCC Cat. #CCL2), A375 malignant melanoma (ATCC Cat. #CRL-1619), HCT-116 colon carcinoma (ATCC Cat. #CCL-247), SKBR3 breast carcinoma (ATCC Cat. #HTB-30) and BT474 breast carcinoma (ATCC Cat. #HTB-20).
(§4) The carcinoma cells were trypsinized and counted. The cells (3000-8000 count) were added to each well of a 96-well CytoStar tissue culture treated scintillating microplate (Amersham #RPNQ0160) in complete medium (100 μL) and the plate was then incubated in complete medium for 24 hrs at 37° C. in an inert atmosphere containing 5% CO2.
(§5) Test compound (1 μL) in 100% DMSO was added to the plate test-wells with DMSO only added to control-wells. The plate was incubated in complete medium for a second 24 hr period at 37° C. in an atmosphere containing 5% CO2.
(§6) An aliquot of a solution of Methyl ^14C-thymidine (56 mC/mmol) (NEN #NEC568 or AMersham #CFA532) and complete medium (20 uL to provide 0.2 μCl/well) was then added to each well and the plate was incubated for a third 24 hr period at 37° C. in an atmosphere containing 5% CO2.
(§7) The plate contents were then discarded, the plate washed twice with PBS (200 μL) and then PBS (200 μL) was added to each well. The plate was sealed and the degree of methyl ^14C-thymidine incorporation was quantified on a Packard Top Count.
(§8) Cell proliferation of the Hela cell line was measured using the ATP-Lite method as described in the ATP Lite Kit (Perkin-Elmer Kit Number 6106941) or the C^14 method as described above. Cell proliferation of the other cell lines was measured using the C^14 method.

The target in the next assay is T1, HER-2 (Homo sapiens, UniProt P04626).
T1 construct: His6 with thrombin site (N); purchased Proqinase (Freiburg, Germany)
Put plainly: HER-2 Kinase Assay. The format is biochemical. As to conditions: value in parentheses. The essentials:
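Read-out was scintillation counting of 33P incorporated into biotinylated polyGluTyr captured on streptavidin plates. Reactions ran 1 h at 30 °C with GST-fused HER-2 residues 679–1255, 1 μM ATP, Mn2+ and Mg2+ at pH 7.5; data given as percent inhibition at 1 μM, with IC50 where determined.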

In assay [1] the test system is HeLa cervical adenocarcinoma. The assay can be described thus: Cell Proliferation Inhibition Assay, Hela (C14 method). The format is cell-based. As to conditions: Homo sapiens, Table 7.
From the text: as §1, §2, §3, §4, §5, §6, §7, §8

A further assay deals with T2, c-Src kinase (human) (Homo sapiens, UniProt P12931).
T2 construct: purchased Upstate Biotechnology, Lake Placid, N.Y
The assay can be described thus: c-Src Kinase Assay. As to conditions: for inhibition at 2 µM / c-Src % Inhibition: test concentration of 2 μM, multiple values are separate assay results; for pIC50: read-out: c-Src IC50 (in parentheses); for c-Src % Inhibition: 2 µM. The format is biochemical. Put shortly: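 Inhibition was read as 33P incorporation, counted on P30 filtermats, after a 40 min, 30° C reaction. Human c-Src acted on 100 μM Cdc2 peptide with 5 μM ATP (final), pH 7.0 MOPS/MgCl2. Values are percent inhibition at 2 μM compound, or IC50 where determined.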

T2 sequence (P12931 whole entry): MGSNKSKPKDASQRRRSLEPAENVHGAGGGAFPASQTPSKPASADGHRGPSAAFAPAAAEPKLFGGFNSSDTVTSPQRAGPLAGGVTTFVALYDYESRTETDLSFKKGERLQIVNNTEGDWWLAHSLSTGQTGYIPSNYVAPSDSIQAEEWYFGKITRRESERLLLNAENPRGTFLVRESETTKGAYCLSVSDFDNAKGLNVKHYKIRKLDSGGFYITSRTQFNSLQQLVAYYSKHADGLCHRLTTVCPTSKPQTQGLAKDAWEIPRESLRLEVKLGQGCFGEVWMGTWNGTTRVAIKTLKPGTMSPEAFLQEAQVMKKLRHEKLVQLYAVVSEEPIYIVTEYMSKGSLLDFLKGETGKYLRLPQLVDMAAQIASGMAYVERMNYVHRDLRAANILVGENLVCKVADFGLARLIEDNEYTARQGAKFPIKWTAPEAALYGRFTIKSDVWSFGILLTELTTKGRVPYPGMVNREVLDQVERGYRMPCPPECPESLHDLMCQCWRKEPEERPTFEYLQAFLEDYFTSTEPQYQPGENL
T1 sequence (P04626 679-1255): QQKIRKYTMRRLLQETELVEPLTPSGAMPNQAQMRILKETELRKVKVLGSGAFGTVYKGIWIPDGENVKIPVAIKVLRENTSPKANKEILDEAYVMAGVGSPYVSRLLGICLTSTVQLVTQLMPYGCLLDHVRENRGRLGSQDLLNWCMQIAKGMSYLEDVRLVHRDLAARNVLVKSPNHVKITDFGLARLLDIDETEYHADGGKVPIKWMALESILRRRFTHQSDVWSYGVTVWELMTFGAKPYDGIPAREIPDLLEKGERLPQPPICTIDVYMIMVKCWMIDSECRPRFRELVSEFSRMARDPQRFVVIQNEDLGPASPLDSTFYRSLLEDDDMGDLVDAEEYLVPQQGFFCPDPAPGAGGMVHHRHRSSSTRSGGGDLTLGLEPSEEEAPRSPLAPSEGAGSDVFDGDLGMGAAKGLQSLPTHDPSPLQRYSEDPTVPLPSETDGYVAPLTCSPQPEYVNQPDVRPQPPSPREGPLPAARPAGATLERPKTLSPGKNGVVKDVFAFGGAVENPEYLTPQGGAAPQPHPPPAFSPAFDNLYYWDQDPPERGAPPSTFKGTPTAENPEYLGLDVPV

For the compound `O=C(Nc1ccc(CN2CCOCC2)cc1)c1sc2ncnc3c2c1NC(=O)N3c1ccc(Oc2ccc(F)cc2)cc1` [Cpd 110, 5-[4-(4-fluoro-phenoxy)-phenyl]-4-oxo-4,5-dihydro-3H-1-thia-3,5,6,8-tetraaza-acenaphthylene-2-carboxylic acid (4-morpholin-4-ylmethyl-phenyl)-amide], the negative logarithm of the IC50 (pIC50) (in general, the negative decadic logarithm of the IC50, by convention in mol/L) in the assay with A375 malignant melanoma was 4.00; at HER-2, 6.79; in assay [1] it was 4.81. For the same compound, on c-Src kinase (human), the inhibition (usually the relative decrease from the control value, in per cent) at 2 µM stood at 16%.
In the same order, the values of `O=C(Nc1ccc(N2CCOCC2)cc1)c1sc2ncnc3c2c1NC(=O)N3c1ccc2c(ccn2Cc2cccc(F)c2)c1` [Cpd 94, 5-[1-(3-fluoro-benzyl)-1H-indol-5-yl]-4-oxo-4,5-dihydro-3H-1-thia-3,5,6,8-tetraaza-acenaphthylene-2-carboxylic acid (4-morpholin-4-yl-phenyl)-amide] are 4.00, ~5.00, ≤ 4.00 and -39%.
For the compound `O=C(NCCCN1CCOCC1)c1sc2ncnc3c2c1NC(=O)N3c1ccc2c(ccn2Cc2cccc(F)c2)c1` [Cpd 95, 5-[1-(3-fluoro-benzyl)-1H-indol-5-yl]-4-oxo-4,5-dihydro-3H-1-thia-3,5,6,8-tetraaza-acenaphthylene-2-carboxylic acid (3-morpholin-4-yl-propyl)-amide], the figures for the pIC50 (with A375 malignant melanoma; at HER-2; in assay [1]) were 5.00, 6.46 and ≤ 5.00, respectively. For the same compound, the inhibition at 2 µM against c-Src kinase (human) is -15%.
As for `Cc1ccc(N2C(=O)Nc3c(C(=O)Nc4ccc(CN5CCOCC5)cc4)sc4ncnc2c34)cc1Br` [Cpd 108, 5-(3-bromo-4-methyl-phenyl)-4-oxo-4,5-dihydro-3H-1-thia-3,5,6,8-tetraaza-acenaphthylene-2-carboxylic acid (4-morpholin-4-ylmethyl-phenyl)-amide], the negative logarithm of the IC50 (pIC50) is 4.00 with A375 malignant melanoma, 6.83 at HER-2 and ≤ 4.00 in assay [1]. For the same compound, the inhibition at 2 µM on c-Src kinase (human) came to 19%.
Regarding `O=C(O)c1sc2ncnc3c2c1NC(=O)N3c1ccc2c(ccn2Cc2cccc(F)c2)c1` [Cpd 77, 5-[1-(3-fluoro-benzyl)-1H-indol-5-yl]-4-oxo-4,5-dihydro-3H-1-thia-3,5,6,8-tetraaza-acenaphthylene-2-carboxylic acid], the pIC50 with A375 malignant melanoma is 4.00; at HER-2 it was 5.86; in assay [1], ≤ 4.00; on c-Src kinase (human), < 3.70. Moreover, the inhibition at 2 µM against c-Src kinase (human) worked out at 44%.
Take `CCOC(=O)c1sc2ncnc3c2c1NC(=O)N3c1cc(Br)ccc1C` [Cpd 103, 5-(5-bromo-2-methyl-phenyl)-4-oxo-4,5-dihydro-3H-1-thia-3,5,6,8-tetraaza-acenaphthylene-2-carboxylic acid ethyl ester]: the pIC50 in the assay on A375 malignant melanoma is 4.00; on HER-2, < 4.00; in assay [1], ≤ 4.00. The inhibition at 2 µM against c-Src kinase (human) was found to be 14%. The “c-Src % Inhibition” value on c-Src kinase (human) worked out at 18%.
Take `CCOC(=O)c1sc2ncnc3c2c1NC(=O)N3c1ccc(C)c(Br)c1` [Cpd 102, 5-(3-bromo-4-methyl-phenyl)-4-oxo-4,5-dihydro-3H-1-thia-3,5,6,8-tetraaza-acenaphthylene-2-carboxylic acid ethyl ester]: the pIC50 was 4.00 in the assay on A375 malignant melanoma, < 4.00 on HER-2 and ≤ 4.00 in assay [1]. The “c-Src % Inhibition” value at c-Src kinase (human) was 3% and 12%.
Take `CN1CCC(NC(=O)c2sc3ncnc4c3c2NC(=O)N4c2ccc3c(ccn3Cc3cccc(F)c3)c2)CC1` [Cpd 92, 5-[1-(3-fluoro-benzyl)-1H-indol-5-yl]-4-oxo-4,5-dihydro-3H-1-thia-3,5,6,8-tetraaza-acenaphthylene-2-carboxylic acid (1-methyl-piperidin-4-yl)-amide]: the pIC50 with A375 malignant melanoma was 5.31; at HER-2, 6.44; in assay [1] it was 5.37; at c-Src kinase (human), 6.37. For the same compound, the inhibition at 2 µM against c-Src kinase (human) is 65%. Besides, the “c-Src % Inhibition” value at c-Src kinase (human) was 45%.
With `Cc1ccc(Br)cc1N1C(=O)Nc2c(C(=O)NC3CCN(C)CC3)sc3ncnc1c23` [Cpd 117, 5-(5-bromo-2-methyl-phenyl)-4-oxo-4,5-dihydro-3H-1-thia-3,5,6,8-tetraaza-acenaphthylene-2-carboxylic acid (1-methyl-piperidin-4-yl)-amide], the pIC50 was 4.00 in the assay on A375 malignant melanoma, 4.89 on HER-2 and ≤ 4.00 in assay [1]. On c-Src kinase (human), the inhibition at 2 µM amounted to 25%.
Regarding `O=C(O)c1sc2ncnc3c2c1NC(=O)N3c1ccc2c(cnn2Cc2cccc(F)c2)c1` [Cpd 79, 5-[1-(3-fluoro-benzyl)-1H-indazol-5-yl]-4-oxo-4,5-dihydro-3H-1-thia-3,5,6,8-tetraaza-acenaphthylene-2-carboxylic acid], the negative-log IC50 (pIC50) was 4.00 in the assay with A375 malignant melanoma, < 5.00 at HER-2, ≤ 4.00 in assay [1] and < 3.70 at c-Src kinase (human). The inhibition at 2 µM at c-Src kinase (human) is -17%.
Consider `Cc1ccc(Br)cc1N1C(=O)Nc2c(C(=O)Nc3ccc(CN4CCOCC4)cc3)sc3ncnc1c23` [Cpd 109, 5-(5-bromo-2-methyl-phenyl)-4-oxo-4,5-dihydro-3H-1-thia-3,5,6,8-tetraaza-acenaphthylene-2-carboxylic acid (4-morpholin-4-ylmethyl-phenyl)-amide], for which the pIC50 is 5.00 in the assay on A375 malignant melanoma, 6.16 on HER-2 and ≤ 5.00 in assay [1]. On c-Src kinase (human), the inhibition at 2 µM worked out at 31%.
In the case of `O=C(Nc1ccc(CN2CCCCC2)cc1)c1sc2ncnc3c2c1NC(=O)N3c1ccc2c(ccn2Cc2cccc(F)c2)c1` [Cpd 87, 5-[1-(3-fluoro-benzyl)-1H-indol-5-yl]-4-oxo-4,5-dihydro-3H-1-thia-3,5,6,8-tetraaza-acenaphthylene-2-carboxylic acid (4-piperidin-1-ylmethyl-phenyl)-amide], the pIC50 is 5.17 in the assay with A375 malignant melanoma, 6.82 at HER-2, 5.50 in assay [1] and < 3.70 on c-Src kinase (human).
As for `O=C(NCCN1CCOCC1)c1sc2ncnc3c2c1NC(=O)N3c1ccc2c(ccn2Cc2cccc(F)c2)c1` [Cpd 93, 5-[1-(3-fluoro-benzyl)-1H-indol-5-yl]-4-oxo-4,5-dihydro-3H-1-thia-3,5,6,8-tetraaza-acenaphthylene-2-carboxylic acid (2-morpholin-4-yl-ethyl)-amide], the pIC50 in the assay with A375 malignant melanoma was 5.00; on HER-2, 6.11; in assay [1], ≤ 5.00. The inhibition at 2 µM at c-Src kinase (human) came to 41%.
Regarding `CCOC(=O)c1sc2ncnc3c2c1NC(=O)N3c1ccc2c(cnn2Cc2cccc(F)c2)c1` [Cpd 78, 5-[1-(3-fluoro-benzyl)-1H-indazol-5-yl]-4-oxo-4,5-dihydro-3H-1-thia-3,5,6,8-tetraaza-acenaphthylene-2-carboxylic acid ethyl ester], the pIC50 in the assay on A375 malignant melanoma is 4.00; on HER-2 it was < 4.00; in assay [1], ≤ 4.00; on c-Src kinase (human), < 3.70.
As to `O=C(Nc1ccc(CN2CCCCC2)cc1)c1sc2ncnc3c2c1NC(=O)N3c1ccc2c(cnn2Cc2cccc(F)c2)c1` [Cpd 80, 5-[1-(3-fluoro-benzyl)-1H-indazol-5-yl]-4-oxo-4,5-dihydro-3H-1-thia-3,5,6,8-tetraaza-acenaphthylene-2-carboxylic acid (4-piperidin-1-ylmethyl-phenyl)-amide], the pIC50 in the assay on A375 malignant melanoma was 4.99; at HER-2, 6.92; in assay [1] it was 5.29; at c-Src kinase (human), < 3.70.
With `Cc1ccc(N2C(=O)Nc3c(C(=O)NC4CCN(C)CC4)sc4ncnc2c34)cc1Br` [Cpd 116, 5-(3-bromo-4-methyl-phenyl)-4-oxo-4,5-dihydro-3H-1-thia-3,5,6,8-tetraaza-acenaphthylene-2-carboxylic acid (1-methyl-piperidin-4-yl)-amide], the pIC50 in the assay with A375 malignant melanoma was 5.00; at HER-2 it was 5.77; in assay [1], ≤ 5.00. Also, on c-Src kinase (human), the inhibition at 2 µM was -7%.
